Three compounds from patent publication US20240270771A1, “Compound containing phosphate group, pharmaceutical composition containing same, preparation method therefor and use thereof” (SHANGHAI RAISING PHARMACEUTICAL CO., LTD., priority 2021, published 2024) can be followed below.

The subject of experiment [1] is memory reproduction disorder model induce by ethanol. Nature of the experiment: Dark avoidance test, memory reproduction disorder model induced by ethanol. Type of experiment: in vivo, ICR mice. As to conditions: 45% ethanol 0.1 mL/10 g gavage, compound 200 mg/kg gavage once a day 3 weeks; for Number of errors: model group 2.4 ± 1.7; for Latency period: model group 118.4 ± 106.9. The procedure: The mice employed in the present test were purchased from Xipuer-BIKAI Laboratory Animal Co., Ltd., and they were SPF grade ICR mice, 3-4 weeks old, weighing 16-18 g.
Anhydrous ethanol: Shanghai Titan Technology Co., Ltd.; Product No.: G73537B; Purity: >99.7%.
Test article preparation: 100 mg of the compound to be tested was weighed and added to 10 mL of 0.7% CMC-Na to prepare a 10 mg/mL suspension for use.
The laboratory mice were randomly divided into groups (9 or 10 mice per group). The mice in each group were administrated at a dosage of 0.2 mL/10 g body weight by oral gavage once a day for three weeks.
The laboratory mice animals were administered by gavage for three weeks. One hour after the last administration, they were trained with the YLS-17B dark avoidance tester. The test was performed 24 h later. A 45% ethanol solution (0.1 mL/10 g) was administered by oral gavage 30 min before the test. The latency period (the time from the start of counting to the first time of entering the dark compartment) and the number of errors (number of electric shocks) of the animals were recorded.
The activity box of the dark avoidance automatic tester comprises two compartments (bright and dark), there is a hole between the two compartments, the bottom of the box is covered by a copper grid, and the animals normally go into the dark compartment. Before the formal test, the laboratory mice were trained by placing the animals in the bright compartment with their backs facing the entrance of the hole, to get familiar with the environment for 5 min, and then the copper grid in the dark compartment was electrified for stimulation at a voltage of 50 V and a current of 1.00 mA (which can be adjusted according to the actual situation). When the animals received electric shock, they entered the bright compartment, or went back and forth between the two compartments. The current was continuously applied for 5 min, which served as the training process.
Testing: the mice modeled with ethanol were put into the bright box one by one with their backs facing the entrance of the hole, and the time interval between putting each animal was 5 s. After the first animal was put into the bright compartment, the electricity was applied immediately. The electricity was applied for 6 min. At the end of applying electricity, data were printed, and the latency period (the time from the start of counting to the first time of entering the dark compartment) and the number of errors (the number of electric shock during the testing period) were recorded. Due to the different time of putting the animal in, the time difference can be subtracted according to the actual time of putting the animal.
Statistical analysis: all data were expressed as the mean value±standard deviation, and SPSS software was used for analysis.

In the next experiment the test system is APP/PSi 2×Tg mice. In words: Water maze behavior test. Type of experiment: in vivo. As to conditions: 200 mg/kg oral gavage once a day, 8 weeks; for The number of crossing the platform: test day 6, model group 0.9 ± 0.6; for Time in the target quadrant: test day 6, model group 12.8 ± 2.9, in s. The text has this: Rodents in water have a strong incentive to escape from the water environment, and can escape from the water environment in the fastest and most direct way. The process of learning to escape from the water environment reflects the learning ability of the animals. Spatial positioning according to the surrounding environment and purposefully swimming to a safe place in the water (such as a platform) can reflect the spatial learning and memory ability of the animals.
The test animals were APP/PSi 2×Tg mice (C57BL/6 wild-type mice as the blank control). Mice of 6-8 months old, weighing 20-40 g, were purchased from The Jackson laboratory.
APP/PSi mice are APP/PSi di-transgenic Alzheimer's disease (2×Tg-AD) model mice, and the appearance of deposition of Aβ is earlier than the pathological changes of tau protein for several months, which can more truly simulate the clinical process and pathological changes of Alzheimer's disease.
Preparation of 0.7% CMC-Na: 0.7 g CMC-Na was added with a proper amount of water, heated for dissolution, left for cooling to room temperature, diluted to 100 mL, and stored at 4° C.
Preparation of BTMP: 100 mg of BTMP was added to 10 mL of 0.7% CMC-Na to prepare a 10 mg/mL suspension for use.
Preparation of test compound and comparative compound 1: 100 mg of the compound to be tested was weighted and added to 10 mL of 0.7% CMC-Na to prepare a 10 mg/mL suspension for use.
The laboratory mice were randomly divided into groups (9 or 10 mice per group). Mice in each group were administrated at a dosage of 0.2 mL/10 g body weight by oral gavage once a day for eight weeks.
The mice in the blank control group, model group and test group were orally administrated for 8 consecutive weeks according to the above administration dosage/specification. The water maze training and test were started in the last week of administration. The water maze training and test lasted for six days, with a training period of five days and a testing period of one day. In addition, during the training and testing period of water maze (6 days in total), the indoor conditions such as lighting etc. were kept consistent, the room was kept quiet, and the interference from the environment and personnel was excluded.
2.1. Preparation before the test: a proper amount of water was put into the water maze pool with the water temperature being kept at 22±3° C. The platform was placed in a fixed position (target quadrant) and 1 cm below the water surface, and titanium dioxide was added until the water became white, so that the platform could not be seen clearly.
2.2. Training period (days 1 to 5): on each day, before the first quadrant training, each mouse was placed on the platform for 15 s (to increase the mice's sense of security on the platform), and then the mouse was put into the pool (with its head facing the pool wall) from the quadrant where the platform located, and the swimming time was set as 60 s. If the mouse found the platform within 60 s and stayed for 5 s, it was regarded as the platform being found successfully. If the mouse could not find the platform, then the time was recorded as 60 s. The mouse was guided to the platform and stayed for 20 s, the mouse was then taken out, and the quadrant training for this mouse was ended.
After the first quadrant training, the mouse was trained in the remaining three quadrants sequentially, where it is not necessary to place the mouse on the platform for 15 s before training. The training of each mouse in every two quadrants was conducted at an interval of 10-15 minute. In this way, the training was performed continuously for 5 days.
2.3. Testing period (day 6): 24 hours after the last training, the platform was removed, and the mouse was dropped at the position opposite to the quadrant where the platform previously located (i.e., the position furthest away from the platform). […]

The mark [2] stands for this setting: test day 6, model group 45.0 ± 8.8.

With `CCCC(CCC)C(=O)S/C(CCOP(=O)(O)O)=C(/C)N(C=O)Cc1cnc(C)nc1N` [Compound 1, (Z)—S-(2-(N-((4-amino-2-methylpyrimidin-5-yl)methyl)formamido)-5-(phosphonooxy)pent-2-en-3-yl) 2-propylpentanethioate], in experiment [1], the Number of errors is 1.0 ± 1.25 and the Latency period was found to be 229.8 ± 90.0 s. Besides, in the experiment on APP/PSi 2×Tg mice, the “The number of crossing the platform” value was found to be 2.4 ± 0.8 and the “Time in the target quadrant” value worked out at 19.6 ± 3.4. The Latency period with APP/PSi 2×Tg mice (test day 6, model group 45.0 ± 8.8, 200 mg/kg) is recorded as 22.0 ± 1.5 s. In the experiment with APP/PSi 2×Tg mice (test day 6, model group 45.0 ± 8.8, listed as compound 1, 200 mg/kg), this compound came in with a Latency period of 22.0 ± 1.5 s.

As for `CCC(CC)C(=O)S/C(CCOP(=O)(O)O)=C(/C)N(C=O)Cc1cnc(C)nc1N` [Compound 2, (Z)—S-(2-(N-((4-amino-2-methylpyrimidin-5-yl)methyl)formamido)-5-(phosphonooxy)pent-2-en-3-yl) 2-ethylbutanethioate], in experiment [1], the Number of errors amounted to 1.2 ± 1.3 and the Latency period is listed as 217.4 ± 96.6 s. In the experiment with APP/PSi 2×Tg mice, the “The number of crossing the platform” value is listed as 2.2 ± 0.6 and the “Time in the target quadrant” value worked out at 18.8 ± 2.6. The compound further displayed a Latency period in the experiment with APP/PSi 2×Tg mice (setting [2]) of 22.7 ± 1.1 s.

With `C/C(=C(\CCOP(=O)(O)O)SC(=O)c1ccco1)N(C=O)Cc1cnc(C)nc1N` [Compound 9, (Z)—S-(2-(N-((4-amino-2-methylpyrimidin-5-yl)methyl)formamido)-5-(phosphonooxy)pent-2-en-3-yl) furan-2-carbothioate], in experiment [1], the Number of errors is reported as 1.0 ± 1.0 and the Latency period amounted to 216.1 ± 76.8 s. In the experiment on APP/PSi 2×Tg mice, the “The number of crossing the platform” value was 2.3 ± 0.5 and the “Time in the target quadrant” value turned out to be 18.6 ± 1.6. This compound also showed a Latency period in the experiment with APP/PSi 2×Tg mice (setting [2]) of 22.8 ± 1.3 s.
